Results reported in patent US6376497B1, “Antifungal azole derivatives having a fluorinated vinyl group and process for preparing same” (Korea Research Institute of Chemical Technology, priority 1999, dated 2002).
Values after ≈ are worked out from the molar mass of the structure shown.

How the values were obtained:
Assay in all cases: In vitro antifungal activity, microbroth dilution MIC
Type in all cases: cell-based
[1] = system: Aspergillus furnigatus B. 19119; conditions: 4 to 48 hours; for Minimal inhibitory concentration(MIC), A furnigatus B. 19119: RPMI-1640, 35° C., no growth observed
Outline: (§1)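 Broth microdilution adapted from NCCLS M27, in RPMI-1640 with 0.165 M MOPS, pH 7.0. Yeast or mould inoculum at 2×10^3 CFU/ml was mixed 1:1 with DMSO-derived compound solutions (200 to 0.10 μg/ml before mixing) and incubated at 35 °C for 4 to 48 h. MIC was the concentration showing no growth.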

[2] = system: Aspergillus niger A. 16404; conditions: 4 to 48 hours; for Minimal inhibitory concentration(MIC), A. niger A. 16404: RPMI-1640, 35° C., no growth observed
Outline: as §1

[3] = system: Candida albicans A. 10231; conditions: 4 to 48 hours; for Minimal inhibitory concentration(MIC), C. albicans A. 10231: RPMI-1640, 35° C., no growth observed
Outline: as §1

[4] = system: Candida albicans C1-2; conditions: 4 to 48 hours; for Minimal inhibitory concentration(MIC), C. albicans C1-2: RPMI-1640, 35° C., no growth observed
Outline: as §1

[5] = system: Candida albicans IFO. 1385; conditions: 4 to 48 hours; for Minimal inhibitory concentration(MIC), C. albicans IFO. 1385: RPMI-1640, 35° C., no growth observed
Outline: as §1

[6] = system: Candida krusei K. 11655; conditions: 4 to 48 hours; for Minimal inhibitory concentration(MIC), C. krusei K. 11655: RPMI-1640, 35° C., no growth observed
Outline: as §1

[7] = system: Candida parapsitosis A. 7330; conditions: 4 to 48 hours; for Minimal inhibitory concentration(MIC), C. parapsitosis A. 7330: RPMI-1640, 35° C., no growth observed
Outline: as §1

[8] = system: Candida pseudotropicalis K. 11658; conditions: 4 to 48 hours; for Minimal inhibitory concentration(MIC), C. pseudotropicalis K. 11658: RPMI-1640, 35° C., no growth observed
Outline: as §1

[9] = system: Candida tropicalis A. 13803; conditions: 4 to 48 hours; for Minimal inhibitory concentration(MIC), C. tropicalis A. 13803: RPMI-1640, 35° C., no growth observed
Outline: as §1

[10] = system: Cryptococcus neoformans A. 34144; conditions: 4 to 48 hours; for Minimal inhibitory concentration(MIC), Cry. neoformans A. 34144: RPMI-1640, 35° C., no growth observed
Outline: as §1

[11] = system: Cryptococcus neoformans B. 42419; conditions: 4 to 48 hours; for Minimal inhibitory concentration(MIC), Cry. neoformans B. 42419: RPMI-1640, 35° C., no growth observed
Outline: as §1

[12] = system: Cryptococcus neoformans IFM. 40092; conditions: 4 to 48 hours; for Minimal inhibitory concentration(MIC), Cry. neoformans IFM. 40092: RPMI-1640, 35° C., no growth observed
Outline: as §1

[13] = system: Torulopsis glabrata B. 16205; conditions: 4 to 48 hours; for Minimal inhibitory concentration(MIC), T. glabrata B. 16205: RPMI-1640, 35° C., no growth observed
Outline: as §1

[14] = system: Trichophyton mentagrophytes A. 9129; conditions: 4 to 48 hours; for Minimal inhibitory concentration(MIC), T. mentagrophytes A. 9129: RPMI-1640, 35° C., no growth observed
Outline: as §1

[15] = system: Trichophyton mentagrophytes B. 32663; conditions: 4 to 48 hours; for Minimal inhibitory concentration(MIC), T. mentagrophytes B. 32663: RPMI-1640, 35° C., no growth observed
Outline: as §1

Minimal inhibitory concentration(MIC), A furnigatus B. 19119 [1] [µg/mL]	Minimal inhibitory concentration(MIC), A. niger A. 16404 [2] [µg/mL]	Minimal inhibitory concentration(MIC), C. albicans A. 10231 [3] [µg/mL]	Minimal inhibitory concentration(MIC), C. albicans C1-2 [4] [µg/mL]	Minimal inhibitory concentration(MIC), C. albicans IFO. 1385 [5] [µg/mL]	Minimal inhibitory concentration(MIC), C. krusei K. 11655 [6] [µg/mL]	Minimal inhibitory concentration(MIC), C. parapsitosis A. 7330 [7] [µg/mL]	Minimal inhibitory concentration(MIC), C. pseudotropicalis K. 11658 [8] [µg/mL]	Minimal inhibitory concentration(MIC), C. tropicalis A. 13803 [9] [µg/mL]	Minimal inhibitory concentration(MIC), Cry. neoformans A. 34144 [10] [µg/mL]	Minimal inhibitory concentration(MIC), Cry. neoformans B. 42419 [11] [µg/mL]	Minimal inhibitory concentration(MIC), Cry. neoformans IFM. 40092 [12] [µg/mL]	Minimal inhibitory concentration(MIC), T. glabrata B. 16205 [13] [µg/mL]	Minimal inhibitory concentration(MIC), T. mentagrophytes A. 9129 [14] [µg/mL]	Minimal inhibitory concentration(MIC), T. mentagrophytes B. 32663 [15] [µg/mL]	Structure (SMILES)	further results
>100	>100	>100	100	6.25	>100	>100	>100	>100	3.13	3.13	0.78	>100	50.0	12.5	CCc1ccc(C(=C(F)Oc2ccc(OCC3COC(Cn4ccnc4)(c4ccc(F)cc4F)O3)cc2)C(F)(F)F)cc1 (mixture of isomers) [Ex. 108]	
100	>100	100	100	25.0	12.5	12.5	6.25	100	3.13	1.56	0.78	50.0	6.25	6.25	Cc1ccc(C=C(F)Oc2ccc(OCC3COC(Cn4ccnc4)(c4ccc(Cl)cc4Cl)O3)cc2)cc1 (mixture of isomers) [Ex. 89]	
>100	>100	100	50.0	3.13	>100	>100	100	>100	1.56	3.13	0.39	100	12.5	3.13	Cc1cccc(C(=C(F)Oc2ccc(OCC3COC(Cn4ccnc4)(c4ccc(F)cc4F)O3)cc2)C(F)(F)F)c1 (mixture of isomers) [Ex. 107]	
															COc1ccc(C(=C(F)OCC2COC(Cn3ccnc3)(c3ccc(Cl)cc3Cl)O2)C(F)(F)F)cc1 (stereo not drawn) [Ex. 27]	Minimal inhibitory concentration (MIC) ([1]; A furnigatus B. 19119, RPMI-1640, 35° C.): 100 µg/mL (≈ 183 µM); Minimal inhibitory concentration (MIC) ([2]; A. niger A. 16404, RPMI-1640, 35° C.): 100 µg/mL (≈ 183 µM); Minimal inhibitory concentration (MIC) ([3]; C. albicans A. 10231, RPMI-1640, 35° C.): 25.0 µg/mL (≈ 45.7 µM); Minimal inhibitory concentration (MIC) ([4]; C. albicans C1-2, RPMI-1640, 35° C.): 25.0 µg/mL (≈ 45.7 µM); Minimal inhibitory concentration (MIC) ([5]; C. albicans IFO. 1385, RPMI-1640, 35° C.): 1.56 µg/mL (≈ 2.85 µM); Minimal inhibitory concentration (MIC) ([6]; C. krusei K. 11655, RPMI-1640, 35° C.): >100 µg/mL; Minimal inhibitory concentration (MIC) ([7]; C. parapsitosis A. 7330, RPMI-1640, 35° C.): >100 µg/mL; Minimal inhibitory concentration (MIC) ([8]; C. pseudotropicalis K. 11658, RPMI-1640, 35° C.): >100 µg/mL; Minimal inhibitory concentration (MIC) ([9]; C. tropicalis A. 13803, RPMI-1640, 35° C.): >100 µg/mL; Minimal inhibitory concentration (MIC) ([10]; Cry. neoformans A. 34144, RPMI-1640, 35° C.): 1.56 µg/mL (≈ 2.85 µM); Minimal inhibitory concentration (MIC) ([11]; Cry. neoformans B. 42419, RPMI-1640, 35° C.): 1.56 µg/mL (≈ 2.85 µM); Minimal inhibitory concentration (MIC) ([12]; Cry. neoformans IFM. 40092, RPMI-1640, 35° C.): 0.78 µg/mL (≈ 1.43 µM); Minimal inhibitory concentration (MIC) ([13]; T. glabrata B. 16205, RPMI-1640, 35° C.): 25.0 µg/mL (≈ 45.7 µM); Minimal inhibitory concentration (MIC) ([14]; T. mentagrophytes A. 9129, RPMI-1640, 35° C.): 25.0 µg/mL (≈ 45.7 µM); Minimal inhibitory concentration (MIC) ([15]; T. mentagrophytes B. 32663, RPMI-1640, 35° C.): 6.25 µg/mL (≈ 11.4 µM)
